Experimental data as given in the supplement of paper PMC10307832.

Columns and labels:
Assay in all cases: relative viability (nuclei count vs DMSO), 5 days (fraction); higher = more cells survive
AT-7519 + Foretinib = compound: O=C(NC1CCNCC1)c1n[nH]cc1NC(=O)c1c(Cl)cccc1Cl [AT-7519] + COc1cc2c(Oc3ccc(NC(=O)C4(C(=O)Nc5ccc(F)cc5)CC4)cc3F)ccnc2cc1OCCCN1CCOCC1 [Foretinib] (partner 0.25 µM)
Method in brief: (§1)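 A single step with final 0.05% Triton X-100, 1% formaldehyde and 1 ug/ml Hoechst fixed the cells and stained nuclei 5 days after treatment. Lung cancer cell lines in 1536-well plates had been treated by pin tool the day after seeding with one drug alone or a fixed anchor-drug dose plus five library-drug doses (not always all listed) in √10 steps, and nuclei were counted on 4× images. Relative viability is the ratio of nuclei in treated wells to nuclei in vehicle wells, taken as the median of duplicate plates.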

AT-7519 + Crizotinib = compound: O=C(NC1CCNCC1)c1n[nH]cc1NC(=O)c1c(Cl)cccc1Cl [AT-7519] + C[C@@H](Oc1cc(-c2cnn(C3CCNCC3)c2)cnc1N)c1c(Cl)ccc(F)c1Cl [Crizotinib] (partner 1 µM)
Method in brief: as §1

[1] = compound: C1=CC2=C(C=C(C(=C2N=C1)O)N=NC3=CC4=C(C=C3)C=C(C=C4)S(=O)(=O)O)S(=O)(=O)O + O=C(c1cc(Cc2n[nH]c(=O)c3ccccc23)ccc1F)N1CCN(C(=O)C2CC2)CC1 [Olaparib] (partner 8 µM)
Method in brief: as §1

[2] = compound: C1=CC2=C(C=C(C(=C2N=C1)O)N=NC3=CC4=C(C=C3)C=C(C=C4)S(=O)(=O)O)S(=O)(=O)O + NC(=O)Nc1cc(-c2cccc(F)c2)sc1C(=O)N[C@H]1CCCNC1 [AZD7762] (partner 0.2 µM)
Method in brief: as §1

Row | Cell Line | relative viability (AT-7519 + Foretinib; first compound 0.01 µM) | relative viability (AT-7519 + Foretinib; first compound 0.03162 µM) | relative viability (AT-7519 + Foretinib; first compound 0.3162 µM) | relative viability (AT-7519 + Foretinib; first compound 1 µM) | relative viability (AT-7519 + Crizotinib; first compound 0.01 µM) | relative viability (AT-7519 + Crizotinib; first compound 0.03162 µM) | relative viability (AT-7519 + Crizotinib; first compound 0.3162 µM) | relative viability (AT-7519 + Crizotinib; first compound 1 µM) | relative viability ([1]; first compound 0.08 µM) | relative viability ([1]; first compound 0.253 µM) | relative viability ([1]; first compound 0.8 µM) | relative viability ([1]; first compound 2.53 µM) | relative viability ([1]; first compound 8 µM) | relative viability ([2]; first compound 0.08 µM) | relative viability ([2]; first compound 0.253 µM) | relative viability ([2]; first compound 0.8 µM) | relative viability ([2]; first compound 2.53 µM) | relative viability ([2]; first compound 8 µM)
1 | NCI-H1993 | 0.786 | 0.842 | 0.809 | 0.594 | 0.846 | 0.82 | 0.813 | 0.577 | 1.03 | 0.931 | 1.18 | 1.09 | 1.1 | 0.906 | 0.712 | 0.702 | 0.845 | 0.832
2 | NCI-H2085 | 0.932 | 0.84 | 0.888 | 0.874 | 0.762 | 0.832 | 0.696 | 0.553 | 0.866 | 0.757 | 0.811 | 0.757 | 0.722 | 0.874 | 1.03 | 0.902 | 0.971 | 0.969
3 | NCI-H2087 | 1.14 | 1.09 | 1.07 | 0.295 | 0.801 | 0.868 | 0.894 | 0.171 | 0.688 | 0.651 | 0.622 | 0.563 | 0.601 | 1.31 | 1.51 | 1.27 | 1.38 | 1.29
4 | NCI-H2126 | 1.08 | 1.24 | 0.838 | 1.12 | 1.07 | 1.05 | 0.931 | 1 | 0.957 | 0.901 | 0.904 | 0.893 | 0.874 | 1.05 | 0.971 | 0.941 | 0.939 | 0.994
5 | NCI-H2170 | 1.09 | 1.03 | 1.04 | 0.958 | 1.16 | 1.26 | 1.18 | 1.18 | 0.639 | 0.557 | 0.595 | 0.614 | 0.576 | 1.02 | 1.04 | 0.89 | 1.01 | 0.914
6 | NCI-H2347 | 0.738 | 0.902 | 0.8 | 0.819 | 0.627 | 0.706 | 0.645 | 0.573 | 0.569 | 0.538 | 0.618 | 0.569 | 0.8 | 0.838 | 0.734 | 0.846 | 1.01 | 0.705
7 | NCI-H2405 | 1.04 | 1.11 | 1.01 | 0.628 | 0.794 | 0.847 | 0.827 | 0.598 | 0.85 | 0.888 | 0.816 | 0.898 | 0.845 | 0.898 | 0.784 | 0.738 | 0.77 | 0.732
8 | NCI-H3122 | 1.07 | 0.968 | 0.983 | 0.465 | 0.272 | 0.277 | 0.241 | 0.208 | 0.643 | 0.623 | 0.561 | 0.644 | 0.584 | 0.967 | 0.976 | 0.975 | 1.03 | 0.962
9 | PC-3 [JPC-3] | 1.03 | 1.05 | 1.03 | 1.06 | 1.09 | 0.99 | 0.962 | 0.95 | 1.31 | 1.15 | 1.17 | 1.14 | 1.09 | 0.899 | 0.808 | 0.817 | 0.778 | 0.71
